Legend:
gastric acid secretion = assay: gastric acid secretion-inhibiting activity (4-methylhistamine-stimulated, Heidenhain pouch, oral); type: in vivo; settings: Canis lupus familiaris, conscious beagle hounds, p.o., 50% inhibition of gastric acid production caused by i.v. 4-methylhistamine, read-out: Gastric acid secretion-inhibition ED 50
Description: The experimental procedure described hereinafter was used to determine the gastric acid secretion-inhibiting activity:
A part of the stomach fundus of female and male beagle hounds is separated from the remainder of the stomach in the form a pouch of the Heidenhain type (modification of the method described by Rudick et al. in J. Surgical Research 7, 383-398 (1967)). In the pouch there is fitted a steel cannula which is conducted externally through the abdominal wall. Before each experiment the animals receive no food for 18 hours, but receive water ad libitum. They are conscious and standing during the experiment and their gastric acid secretion is stimulated by the intravenous infusion of 4-methylhistamine, a selective agonist of the histamine H2 -receptors. The gastric acid production is determined in 15 minute fractions of the stomach pouch juice. As soon as the gastric acid production has a constant value, the substances to be tested are administered orally as a dry powder filled into gelatine capsules. The ED50 is that dosage of a test substance which brings about a 50% inhibition of the gastric acid production caused by 4-methylhistamine in the treated animals in comparison to the controls.

lesions of the stomach = assay: anti-ulcer activity (protection from indomethacin-induced lesions of the stomach, oral); type: in vivo, male rats; settings: Rattus norvegicus, rats, p.o. 1 hour before and 2 hours after 20 mg/kg indomethacin p.o., dosage protecting 50% of the animals, read-out: Anti-ulcer ED 50
Description: The experimental procedure described hereinafter was used to determine the anti-ulcer activity:
Groups each comprising 8 male rats with a body weight of 130-150 g are used for each dosage of a test substance. Before the beginning of the experiment the animals receive no food for 24 hours, but receive water ad libitum. Various dosages of the substances to be tested (suspended in 0.5% tragacanth) or the vehicle alone (controls) are administered twice orally, namely 1 hour before and 2 hours after the oral administration of 20 mg/kg of indomethacin. In the control animals this dosage of indomethacin leads to lesions of the stomach within 5 hours. The animals are sacrificed 6 hours after the first administration of the substance under investigation (or of the vehicle alone). The rats which remain protected from the occurrence of macroscopically visible lesions to the mucous membrane of the stomach are counted. The ED is that dosage of a test substance at which 50% of the animals are protected from the occurence of such lesions.

[1] = acute toxicity (single oral administration to mice); settings: mouse, in vivo, read-out: Toxicity LD 50
From the text: In the following Table there are given for a series of compounds of formula I the results of the testing with respect to their anti-ulcer activity and to their gastric secretion-inhibiting activity. Moreover, this Table contains data concerning the acute toxicity (LD50 in the case of single oral administration to mice).

SMILES | ED50 (gastric acid secretion) [mg/kg] | ED50 (lesions of the stomach) [mg/kg] | LD50 [1] [mg/kg]
CON=C1C(C)(C)c2cc3nc([S+]([O-])Cc4nccc(OC)c4C)[nH]c3cc2C1(C)C (stereo not drawn) [H, 5,7-dihydro-2-[[(4-methoxy-3-methyl-2-pyridyl)methyl]sulfinyl]-5,5,7,7-tetramethylindeno[5,6-d]imidazol-6(lH)-one 0-methyl oxime] | 7.78 | 5 | 1250 to 2500
CON=C1C(C)(C)c2cc3nc(SCc4nccc(OC)c4C)[nH]c3cc2C1(C)C [I, 5,7-dihydro-2-[[(4-methoxy-3-methyl-2-pyridyl)methyl]thio]-5,5,7,7-tetramethylindeno[5,6-d]imidazol-6(lH)-one 0-methyl oxime] | 2.25 | 4 | 1250 to 2500
COc1c(C)cnc(CSc2nc3cc4c(cc3[nH]2)C(C)(C)C(=O)C4(C)C)c1C [A, 5,7-dihydro-2-[[(4-methoxy-3,5-dimethyl-2-pyridyl)-methyl]thio]-5,5,7,7-tetramethylindeno[5,6-d]imidazol-6(lH)-one] | 4.88 | 2 | > 5000
COc1c(C)cnc(C[S+]([O-])c2nc3cc4c(cc3[nH]2)OCO4)c1C (stereo not drawn) [F, 6-[[(4-methoxy-3,5-dimethyl-2-pyridyl)methyl]sulfinyl]-5H-1,3-dioxolo[4,5-f]benzimidazole] | 1.4 | 6 | > 5000
COc1ccnc(C[S+]([O-])c2nc3cc4c(cc3[nH]2)C(C)(C)C(=O)C4(C)C)c1C (stereo not drawn) [D, 5,7-dihydro-2-[[(4-methoxy-3-methyl-2-pyridyl)-methyl]sulfinyl]-5,5,7,7-tetramethylindeno[5,6-d]imidazol-6(lH)-one] | 3.59 | 1.3 | > 5000
COc1c(C)cnc(C[S+]([O-])c2nc3cc4c(cc3[nH]2)C(C)(C)C(=O)C4(C)C)c1C (stereo not drawn) [B, 5,7-dihydro-2-[[(4-methoxy-3,5-dimethyl-2-pyridyl)-methyl]sulfinyl]-5,5,7,7-tetramethylindeno[5,6-d]imidazol-6(lH)-one] | 5.44 | 2.3 | > 5000
COc1ccnc(CSc2nc3cc4c(cc3[nH]2)C(C)(C)C(=O)C4(C)C)c1C [C, 5,7-dihydro-2-[[(4-methoxy-3-methyl-2-pyridyl)methyl]thio]-5,5,7,7-tetramethylindeno[5,6-d]imidazol-6(lH)-one] | 2.56 | 1.2 | > 5000
COc1ccnc(C[S+]([O-])c2nc3cc4c(cc3[nH]2)OCO4)c1C (stereo not drawn) [E, 6-[[(4-methoxy-3-methyl-2-pyridyl)methyl]sulfinyl]-5H-1,3-dioxolo[4,5-f]benzimidazole] | 1.79 | 4 | > 5000

Source: patent publication US4981861A, “Tricyclic imidazole derivatives” (Hoffmann-La Roche Inc., priority 1984, dated 1991)
